The source of these data is patent publication US20240300934A1, “COMPOUNDS FOR MODULATING MYCOBACTERIUM TUBERCULOSIS RESPONSE” (priority 2021, published 2024).

Series [1] relates to Mtb. The following applies: mice that do not form caseous necrotic lesions; cited from earlier work.
The subject of series [2] is Mtb. The following applies: subset of mice failing to respond; cited from earlier work.
The test system of series [3] is rv2390c′::GFP reporter Mtb strain. The series is classed as cell-based, Mycobacterium tuberculosis. The following applies: for rv2390c′::GFP reporter signal upon Mtb exposure to high [Cl−] (in words): 10 μM, 250 mM NaCl; for rv2390c′::GFP Cl− response phenotype: compared to C6.
The subject of series [4] is Mtb in J774 cells. The series can be described thus: Mtb growth in J774 macrophage-like cells (mKO fluorescence). The series is classed as cell-based, Mycobacterium tuberculosis. The conditions noted are these: for Mtb growth in J774 cells (in words): 10 μM, 6 days post-infection; for Inhibition of Mtb growth in J774 cells phenotype: compared to C6. As for the experimental part:
For the tertiary screen of selected hit compounds in J774 murine macrophage-like cells, 30,000 J774 cells/well were seeded in bar-coded 384-well black, clear bottom plates in a 30 μl volume in J774 infection media (DMEM+10% FBS+1 mM sodium pyruvate+2 mM L-glutamine) using a ThermoFisher Multidrop Combi reagent dispenser, one day prior to assay start. On the day of the assay, log-phase Mtb constitutively expressing mKO were pelleted and resuspended in 1 ml basal uptake buffer (0.5% bovine serum albumin+25 mM dextrose+0.5 mM MgCl2+1 mM CaCl2+0.1% gelatin in phosphate buffered saline (PBS), passed 6× though a tuberculin syringe with a 25 G×5/8″ needle, then resuspended in J774 infection media to a final OD600=0.2. 10 μl of this bacterial suspension was added to each well of the 384-well plates containing the J774 cells, followed by addition of 10 μl of the appropriate compounds (pre-aliquoted in v-bottom plates in a 1:1 mix of PBS:J774 infection media). Addition of Mtb and compounds were conducted using a Janus Ministation. For each test plate, two columns of controls (16 wells each) were included, with one column consisting of treatment with DMSO as a carrier control (negative control), and the other column consisting of treatment with 5 μM rifampicin (positive control). This tertiary assay was done as a dose-response assay in duplicate runs, with compounds tested beginning at a final concentration of 20 μM and two-fold dilutions down to 0.039 μM. Plates were kept in humidified ziplock bags in a 37° C., 5% CO2 incubator. 6 days post-infection, mKO fluorescence signal was read using a PerkinElmer EnVision multimode plate reader (bottom read filter, excitation 530/8 nm, Bodipy TMR D555 single mirror, emission 579/25 nm). mKO fluorescence in DMSO-treated control samples were defined as 100% growth, and fluorescence observed in treatment conditions calculated as a percentage from that set value.
For J774 infection in 96-well plates, 180,000 J774 cells were seeded per well in 180 μl of J774 infection media one day prior to infection. On the day of the assay, log-phase Mtb constitutively expressing mKO were pelleted and resuspended in 1 ml basal uptake buffer, passed 6× though a tuberculin syringe with a 25 G×5/8″ needle, then resuspended in J774 infection media to a final OD600=0.2. Media was removed from 96-well plate containing the J774 cells, with 140 μl of fresh J774 infection media added back to each well. 40 μl of the Mtb suspension at OD600=0.2 was added to each well, followed by addition of appropriate concentration of compound or DMSO in a 20 μl final volume in J774 infection media (compound final concentration 10 μM, rifampicin final concentration 5 μM, DMSO final concentration 0.1%/well). Bacterial mKO fluorescence was read immediately after infection using a Biotek Synergy Neo2 microplate reader (bottom read monochromator, excitation 543/10 nm, emission 565/10 nm), and again 6 days post-infection. Plates were kept in humidified ziplock bags in a 37° C., 5% CO2 incubator. mKO fluorescence in DMSO-treated control samples were defined as 100% growth, and fluorescence observed in treatment conditions calculated as a percentage from that set value.

Series [5] concerns Mtb. The series can be described thus: Mtb growth assay in cholesterol media (OD600). It is filed as cell-based, Mycobacterium tuberculosis. The following applies: for Mtb growth in cholesterol media (in words): 10 μM, OD600; for Growth inhibition in cholesterol media phenotype: compared to C6.
Series [6] concerns Mtb. The series can be described thus: Intrabacterial drug accumulation assay. The conditions noted are these: 24 h exposure; 7H9 pH 7 ± 250 mM NaCl.
Series [7] deals with J774 cells. The series can be described thus: Intracellular drug accumulation assay in J774 cells. The following applies: 24 h exposure; uninfected J774 cells.
Series [8] concerns Mtb-infected J774 cells. The conditions noted are these: 10 μM for 24 h; 5 days post-infection.
Series [9] has as its system Mtb in bone marrow-derived macrophages (BMDMs). The series can be described thus: Mtb growth in primary murine bone marrow-derived macrophages (CFU). The series is classed as cell-based, Mycobacterium tuberculosis. The conditions noted are these: 10 μM; added 2 hrs post-infection; eight-day time-course. As for the experimental part: C57BL/6J wild type mice (Jackson Laboratories) were used for extraction of bone marrow-derived macrophages. Cells were harvested and expanded in DMEM containing 10% FBS, 15% L-cell conditioned media, 2 mM L-glutamine, 1 mM sodium pyruvate, and penicillin/streptomycin as needed in a 37° C. incubator in a 5% CO2 atmosphere. […] Macrophages were lysed with water containing 0.01% sodium dodecyl sulfate and a dilution series of the samples plated on 7H10 agar for CFU determination.

With `COc1nc2ccc(Br)cc2cc1[C@@H](c1ccccc1)[C@@](O)(CCN(C)C)c1cccc2ccccc12` [bedaquiline], the “efficacy in BALB/c mice” value in series [1] is given as “uniform efficacy across animals”. For the same compound, the “response in C3HeB/FeJ mice” value in series [2] is given as “heterogeneous response”.

Consider `NC(=O)c1cnccn1` [pyrazinamide], for which the “efficacy in BALB/c mice” value in series [1] is “uniform efficacy across animals”. The “response in C3HeB/FeJ mice” value in series [2] is listed as “heterogeneous response”.

As to `CCSc1ccc(CN2CCN(c3nc4ccccc4o3)CC2)cc1` [JSF-4300, 2-(4-(4-(ethylthio)benzyl)piperazin-1-yl)benzo[d]oxazole], in series [3], the “rv2390c′::GFP reporter signal upon Mtb exposure to high [Cl−] (in words)” value was “continuing to demonstrate the phenotypes seen with the parental C6 compound” and the “rv2390c′::GFP Cl− response phenotype” value is given as “Y”. Also, in [4], the “Mtb growth in J774 cells (in words)” value was “continuing to demonstrate the phenotypes seen with the parental C6 compound” and the “Inhibition of Mtb growth in J774 cells phenotype” value (shortened to “Inhibition of Mtb growth”) was “Y”. Besides, in series [5], the “Mtb growth in cholesterol media (in words)” value is listed as “continuing to demonstrate the phenotypes seen with the parental C6 compound” and the “Growth inhibition in cholesterol media phenotype” value (from here on “Growth inhibition”) was “Y”. Moreover, the “intrabacterial accumulation in Mtb” value in [6] is on record as “robust accumulation”. Besides, the “intracellular accumulation in J774 cells” value in [7] was “robust accumulation”. Also, the “accumulation in Mtb-infected J774 cells” value in series [8] was “robust accumulation”.

Take `COc1ncc(CN2CCN(c3nc4ccccc4o3)CC2)cn1` [JSF-4271, 2-(4-((2-methoxypyrimidin-5-yl)methyl)piperazin-1-yl)benzo[d]oxazole]: in [3], the “rv2390c′::GFP reporter signal upon Mtb exposure to high [Cl−] (in words)” value is “lost the ability” and the “rv2390c′::GFP Cl− response phenotype” value was “N”. In [4], the “Mtb growth in J774 cells (in words)” value is reported as “loss of the ability to inhibit Mtb growth” and the “Inhibition of Mtb growth” value was “N”. For the same compound, the “Mtb bacterial load / growth in primary murine BMDM (in words)” value in series [9] is “loss of the ability to inhibit Mtb growth”. Moreover, in series [5], the “Mtb growth in cholesterol media (in words)” value was “no longer inhibited Mtb growth in cholesterol media” and the “Growth inhibition” value was “N”. Besides, in [6], the “intrabacterial accumulation in Mtb” value was “decreased accumulation”. In series [7], the “intracellular accumulation in J774 cells” value is given as “minimal accumulation”. In addition, the “accumulation in Mtb-infected J774 cells” value in [8] was “minimal accumulation”.

For `c1ccc2oc(N3CCN(Cc4cncnc4)CC3)nc2c1` [JSF-4297, 2-(4-(pyrimidin-5-ylmethyl)piperazin-1-yl)benzo[d]oxazole], in series [3], the “rv2390c′::GFP reporter signal upon Mtb exposure to high [Cl−] (in words)” value is reported as “lost the ability” and the “rv2390c′::GFP Cl− response phenotype” value is “N”. Besides, in series [4], the “Mtb growth in J774 cells (in words)” value is “loss of the ability to inhibit Mtb growth” and the “Inhibition of Mtb growth” value was “N”. Also, in [9], the “Mtb bacterial load / growth in primary murine BMDM (in words)” value is “loss of the ability to inhibit Mtb growth”. For the same compound, in [5], the “Mtb growth in cholesterol media (in words)” value is on record as “no longer inhibited Mtb growth in cholesterol media” and the “Growth inhibition” value is recorded as “N”. Further, the “intracellular accumulation in J774 cells” value in series [7] was “no detectable accumulation”.
